This passage reports Ki results from BindingDB's records for doi:10.1124/jpet.301.2.527 (Mercer University, 2002).

The structures appear in SMILES notation.

For assay [1], the target named is Sodium-dependent dopamine transporter (Rattus norvegicus, UniProt P23977).
For assay [2], the target named is Sodium-dependent serotonin transporter (Rattus norvegicus, UniProt P31652).
Chain of Sodium-dependent serotonin transporter (P31652 whole entry): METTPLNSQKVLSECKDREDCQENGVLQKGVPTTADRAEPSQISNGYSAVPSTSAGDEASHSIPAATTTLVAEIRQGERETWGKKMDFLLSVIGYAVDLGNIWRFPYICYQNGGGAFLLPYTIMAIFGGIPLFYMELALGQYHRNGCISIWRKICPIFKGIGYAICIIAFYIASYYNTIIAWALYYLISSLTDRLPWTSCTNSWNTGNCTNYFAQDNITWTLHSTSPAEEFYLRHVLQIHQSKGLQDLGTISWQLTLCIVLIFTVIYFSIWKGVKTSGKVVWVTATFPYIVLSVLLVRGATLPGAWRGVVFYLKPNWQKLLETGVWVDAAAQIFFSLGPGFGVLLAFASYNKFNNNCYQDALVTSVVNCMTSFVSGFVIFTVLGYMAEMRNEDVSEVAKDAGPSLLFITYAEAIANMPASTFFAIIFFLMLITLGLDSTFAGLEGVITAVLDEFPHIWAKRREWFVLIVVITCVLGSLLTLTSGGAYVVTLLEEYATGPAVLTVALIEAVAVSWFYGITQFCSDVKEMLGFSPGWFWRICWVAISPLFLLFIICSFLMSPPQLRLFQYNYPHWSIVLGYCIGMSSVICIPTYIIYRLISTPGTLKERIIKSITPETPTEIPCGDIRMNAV

Chain of Sodium-dependent dopamine transporter (P23977 whole entry): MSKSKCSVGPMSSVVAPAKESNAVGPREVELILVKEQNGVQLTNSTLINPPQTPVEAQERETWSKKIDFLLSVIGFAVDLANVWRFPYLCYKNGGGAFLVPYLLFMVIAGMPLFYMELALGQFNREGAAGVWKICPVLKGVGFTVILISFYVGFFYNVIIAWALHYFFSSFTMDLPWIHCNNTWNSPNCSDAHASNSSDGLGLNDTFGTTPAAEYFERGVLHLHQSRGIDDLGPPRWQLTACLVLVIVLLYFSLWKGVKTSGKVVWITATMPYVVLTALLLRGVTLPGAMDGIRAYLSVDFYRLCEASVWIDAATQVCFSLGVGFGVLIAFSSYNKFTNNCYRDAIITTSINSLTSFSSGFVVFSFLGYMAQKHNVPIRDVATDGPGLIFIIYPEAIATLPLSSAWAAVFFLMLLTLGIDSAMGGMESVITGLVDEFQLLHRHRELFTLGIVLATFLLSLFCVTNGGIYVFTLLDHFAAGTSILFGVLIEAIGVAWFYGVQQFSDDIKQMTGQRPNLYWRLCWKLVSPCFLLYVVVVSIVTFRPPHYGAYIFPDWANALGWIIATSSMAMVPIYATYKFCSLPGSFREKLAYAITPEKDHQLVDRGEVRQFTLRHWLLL

Regarding `COC(=O)[C@H](c1ccc(Cl)c(Cl)c1)[C@@H]1CCCCN1` [3,4CTMP], the Ki in assay [1] stood at 5.3 nM.

`COC(=O)[C@H](c1cccc(Cl)c1)[C@@H]1CCCCN1C` [3CTMPNMe]: the Ki in assay [1] is 160 nM; in assay [2] it was more than 10000 nM.

As to `COC(=O)[C@H](c1cccc(Cl)c1)[C@@H]1CCCCN1` [3CTMP], the results for the Ki in assay [1] and in assay [2] were 5.1 nM and more than 10000 nM, respectively.

As for `COC(=O)[C@H](c1ccc(N)cc1)[C@@H]1CCCCN1` [4ATMP], the inhibition constant (Ki) is 34.5 nM in assay [1] and more than 10000 nM in assay [2].

Regarding `COC(=O)[C@H](c1ccc(F)cc1)[C@@H]1CCCCN1` [4FTMP], the Ki in assay [1] is 35 nM; in assay [2], more than 10000 nM.

Regarding `COC(=O)[C@H](c1ccc(C)cc1)[C@@H]1CCCCN1C` [4MeTMPNMe], the Ki in assay [1] was determined as 140 nM; in assay [2] it was 1110 nM.

On to `COC(=O)[C@H](c1ccc(C)cc1)[C@@H]1CCCCN1` [4MeTMP], for which the figures for the inhibitory constant (Ki) in assay [1] and in assay [2] were 33 nM and more than 10000 nM, respectively.

As for `COC(=O)[C@H](c1ccccc1)[C@@H]1CCCCN1C` [TMPNMe], the results for the inhibition constant (Ki) in assay [1] and in assay [2] were 499 nM and more than 10000 nM, respectively.

Consider `COC(=O)[C@H](c1ccccc1)[C@@H]1CCCCN1` [TMP], for which, in assay [2], the inhibition constant Ki is more than 10000 nM.

On to `CCCCN1CCCC[C@H]1[C@H](CO)c1ccccc1` [TROHNBn], for which the inhibition constant Ki in assay [1] is 23.7 nM; in assay [2] it was 204 nM.

In the case of `CCCCN1CCCC[C@H]1[C@H](COC)c1ccccc1` [TROMeNBn], the values for the inhibition constant Ki in assay [1] and in assay [2] were 17.8 nM and 166 nM, respectively.

What is called Ki is a measure of affinity in units of concentration, obtained from inhibition or displacement.
